According to patent US20180271930A1, “METHOD FOR RAISING POULTRY” (priority 2015, published 2018):

Legend:
[1] = Examination 1: body weight of initial-phase chicks fed additive-containing feed for 3 days; type: in vivo, broiler chicks of the Chunky breed (Ross 308); conditions: n = 6
Procedure: Newly hatched broiler chicks of the Chunky breed (Ross 308, Ross Breeders Ltd.) were tested. […] Blood and skeletal muscles were collected to observe gene expression levels of MyoD, myogenin, myostatin, and IGF-I (insulin-like growth factor-I). An ammonium salt was used as oxidized glutathione (GSSG). The GSSG contained 95.6% by mass of oxidized glutathione, and the content of reduced glutathione mixed therein was 0.1% by mass or less. […] The amount of GSSG used herein was determined in terms of the amount of free oxidized glutathione. In all the following Examinations, the amounts of GSSG are expressed in terms of the amount of free oxidized glutathione.

[2] = Examination 2-1: breeding performance at 21 and 28 days old after GSSG prestarter feed; type: in vivo, broiler chicks; conditions: 0.01% by mass GSSG feed for first 72 h, n = 6
Procedure: Newly hatched broiler chicks (Ross Breeders Ltd.) were fed with a feed composition for 3 days. The feed composition contained GSSG at a level of 0.01% by mass which was thought to be appropriate based on Examination 1. […] Two groups, which were a control group and a GSSG addition group (0.01% by mass), were set. In each group, 6 males and 6 females were tested. Chicks received at 0 day old were fed with a test feed composition (initial-phase feed composition) during 72 hours after the receipt. […] Their body weights, breast meat weights, leg meat weights, and liver weights were measured. As the initial-phase feed composition, the feed composition comprising 0.01% by mass of GSSG used in Examination 1 was used for the GSSG addition group, and the feed composition (ME3,100 kcal/kg, CP21) free of GSSG used in Examination 1 was used for the control group. […] An ammonium salt was used as oxidized glutathione (GSSG). The GSSG contained 95.6% by mass of oxidized glutathione, and the content of reduced glutathione mixed therein was 0.1% by mass or less.

[3] = Examination 2-2: breeding performance at 40 days old after GSSG prestarter feed; type: in vivo, broiler chicks (Ross 308); conditions: 0.01% by mass GSSG feed for first 72 h, n = 12
Procedure: Thereafter, the composition was replaced by an ordinary feed composition of the same type and the chicks were raised until they became 40 days old. […] Two groups, which were a control group and a GSSG addition group (0.01% by mass) were set. In each group, 6 males and 6 females were tested. Chicks received at 0 day old were fed with a test feed composition (initial-phase feed composition) during 72 hours after the receipt. […] The body weight was measured, and the meat yield and feed conversion ratio were determined. As the initial-phase feed composition, the 0.01% by mass GSSG-containing feed composition used in Examination 1 was used in the GSSG addition group, and the feed composition (ME3,100 kcal/kg, CP21) free of GSSG used in Examination 1 was used for the control group. […] An ammonium salt was used as oxidized glutathione (GSSG). The GSSG contained 95.6% by mass of oxidized glutathione, and the content of reduced glutathione mixed therein was 0.1% by mass or less. […] The term “meat yield” refers to a proportion of meat excluding bones and fats with respect to the body weight. The meat yield can be determining by performing slaughtering and butchering, collecting meat alone, and weighing the collected meat.

myostatin = assay: Examination 3: myostatin mRNA expression in skeletal muscle cells in differentiation medium; type: cell-based, broiler chicks (Ross 308); conditions: 100 μM GSSG in differentiation medium; cells recovered 0, 12, 24 h; FIG. 2B, n=6
Source text: FIGS. 2A to 2D illustrate graphs showing the expression levels of genes related to skeletal muscle cell differentiation upon the addition of GSSG during the skeletal muscle cell differentiation period in Examination 3 (n=6). […] A relative value of the expression level of each factor is expressed as an average±standard deviation of values obtained by dividing the expression levels of each factor by the expression level of RPS9. Each different symbol denotes a significant difference in the […] multiple comparison test (P<0.05). Oxidized glutathione (GSSG) was added to a differentiation-promoting culture medium system of skeletal muscle cells collected from newly hatched broiler chicks (Ross 308, Ross Breeders Ltd.) (under culture conditions simulating the state of skeletal muscle cells of neonatal chicks), phosphorylation of signal factors was analyzed by Western blot, and the differentiation inhibition mechanism was investigated. Expression levels of MyoD, myostatin, IGF-I, and Pax7 as genes involved in myogenesis were determined. Pax7 is a muscle satellite cell marker. […] The expression level of Pax7 was determined by the method described in Examination 1 except that the primer set used herein was a primer set listed in the table below. […] The cells were recovered 0, 12, and 24 hours later, and the expression levels of genes involved in myogenesis were determined. […]

[4] = Examination 7: body weight at 14 days old after GSSG feed until 3, 7 or 14 days old; type: in vivo, broiler chicks; conditions: n = 12
Procedure: In each group, 6 males and 6 females were tested. […] The chicks were raised until they became 14 days old, and then, their body weights were measured. The feed composition (ME3,100 kcal/kg, CP21) free of GSSG used in Examination 1 was used for the control group. In the control group the chicks were raised until they became 14 days old and their body weights were measured. In the test groups 1 to 3, a feed composition used as an initial-phase feed composition, for which the level of GSSG to be added was set to 0.05% by mass, is a composition prepared by adding GSSG at 0.05% by mass to a composition (ME3,100 kcal/kg, CP21) containing corn, soybean meal, corn gluten meal, fat and oil, calcium carbonate (powder), tricalcium phosphate, dietary salt, DL-methionine, L-lysine chloride, choline chloride, and vitamins/minerals in accordance with the NRC requirements. […] An ammonium salt was used as GSSG. The GSSG contained 95.6% by mass of oxidized glutathione, and the content of reduced glutathione mixed therein was 0.1% by mass or less.

In the case of oxidized glutathione [GSSG], the “Weight at 3 days old” value ([1]; feed with 0.01% by mass GSSG for 3 days) is reported as 78.1 ± 4.0 g, the “Weight at 3 days old” value ([1]; feed with 0.1% by mass GSSG for 3 days) is reported as 72.8 ± 5.6 g and the Breast meat ([2]; 21 days old) is reported as 118 ± 4 g. For the same substance, the Leg meat ([2]; 21 days old) was 136 ± 6 g, the Weight ([2]; 21 days old) was 933 ± 65 g and the Breast meat ([2]; 28 days old) was 186 ± 15 g. The Leg meat ([2]; 28 days old) was 206 ± 12 g, the Weight ([2]; 28 days old) was 1500 ± 149 g and the Meat yield ([3]; 40 days old) was 42.1 ± 1.1 % by mass. For the same substance, the Weight ([3]; 40 days old) was 2214 ± 79 g, the “Feed conversion ratio (mass ratio)” value ([3]; until 40 days old) was 1.52 ± 0.09 and the “mRNA expression level of myostatin vs control” value (myostatin) was “significant decrease”. For the same substance, the 14-day-old weight ([4]; 0.05% by mass GSSG feed until 3 days old) was 393 ± 17 g, the 14-day-old weight ([4]; 0.05% by mass GSSG feed until 7 days old) was 391 ± 24 g and the 14-day-old weight ([4]; 0.05% by mass GSSG feed until 14 days old) was 351 ± 47 g.
